Assay results published in patent US12319655B2, “RAF kinase inhibitors and methods of use thereof” (Deciphera Pharmaceuticals, LLC, priority 2021, dated 2025).

system: Miapaca-2 cells; assay: MiaPaca-2 Combination Cell proliferation Assay (1) with cobimetinib; type: cell-based; conditions: MiaPaca-2 cell proliferation, read-out: MiaPaca-2 Combo (1) IC50
Experimental: MiaPaca-2 Combination Cell proliferation Assay (1)
Miapaca-2 cells (catalog #CRL-1420) are obtained from the American Type Culture Collect (ATCC, Manassas, VA). Briefly, cells were grown in DMEM supplemented with 10% characterized fetal bovine serum (Invitrogen, Carlsbad, CA), 2.5% New Zealand sourced horse serum and 1% Penicillin/Streptomycin/L-Glutamine at 37° C., 5% CO2, and 95% humidity. Cells are expanded until reaching 70-95% confluency at which point they are subcultured or harvested for assay use. A serial dilution of test compound was dispensed into multiple 96-well black clear bottom plates in triplicate. A serial dilution of complete growth medium containing cobimetinib was prepared at twice the final concentration and 100 μL was dispensed across the test compound titration in triplicate. Three thousand cells are added per well in 100 μL complete growth medium in each 96-well plate. Plates are incubated for 67-72 hours at 37° C., 5% CO2, and 95% humidity. At the end of the incubation, 40 μL of a 440 μM solution of resazurin (Sigma, St. Louis, MO) in PBS is added to each well of the plate and plates are incubated for an additional 5-7 hours at 37° C., 5% CO2, and 95% humidity. Plates are read on a Synergy2 or equivalent reader (Biotek, Winooski VT) using an excitation of 540 nm and an emission of 600 nm. Drug synergy was assessed via BLISS analysis in the Combenefit software (Cancer Research UK Cambridge Institute, Cambridge, UK). Data is analyzed using Prism software (Graphpad, San Diego, CA) to calculate IC50 values. Shifts in test compound IC50 values are reported from top-constrained combination therapy curves.

| Compound | IC50 [nM] |
| --- | --- |
| Cc1ncc(NC(=O)c2ccnc(C(C)(C)C#N)c2)cc1-c1cccc(-c2cc(NC(=O)C3CC3)ncn2)c1 [Example 181] | ≤ 100 |
| CNC(=O)c1cc(-c2cc(-c3cc(NC(=O)c4ccnc(C(C)(C)C#N)c4)cnc3C)ccn2)ccn1 [Example 158] | ≤ 100 |
| CNC(=O)c1cc(-c2cncc(-c3cc(NC(=O)c4ccnc(C5(C#N)CC5)c4)ccc3C)n2)ccn1 [Example 138] | 100 to 500 |
| CNC(=O)c1cc(-c2nccc(-c3cc(NC(=O)c4ccnc(C5(C#N)CC5)c4)ccc3C)n2)ccn1 [Example 175] | ≤ 100 |
| Cc1ccc(NC(=O)c2ccnc(C3CC3)c2)cc1-c1cncc(-c2ccnc(NC(=O)C3CC3)c2)n1 [Example 184] | ≤ 100 |
| CC(=O)Nc1cc(-c2nccc(-c3cc(NC(=O)c4ccnc(C(C)(C)C#N)c4)ccc3C)n2)ccn1 [Example 118] | ≤ 100 |
| Cc1ccc(NC(=O)c2ccnc(C(F)F)c2)cc1-c1cncc(-c2ccnc(NC(=O)C3CC3)c2)n1 [Example 117] | ≤ 100 |
| Cc1ncc(NC(=O)c2ccnc(C(C)(C)C#N)c2)cc1-c1cccc(-c2ccnc(NC(=O)C3CC3)c2)n1 [Example 172] | ≤ 100 |

Results, then the compound that gave them:

| IC50 [nM] | Compound |
| --- | --- |
| ≤ 100 | CC(=O)Nc1cc(-c2cc(-c3cc(NC(=O)c4ccnc(C(F)(F)F)c4)c(F)cc3C)cc(C)n2)ccn1 [Example 4] |
| ≤ 100 | CC(=O)Nc1cc(-c2ccnc(-c3cc(NC(=O)c4ccnc(C(C)(C)C#N)c4)ccc3C)n2)ccn1 [Example 103] |
| 100 to 500 | Cc1ccc(NC(=O)c2ccnc(C(C)(C)C#N)c2)cc1-c1cccc(-c2ccnc3[nH]ncc23)c1 [Example 134] |
| 100 to 500 | Cc1cc(F)c(NC(=O)c2ccnc(C(F)(F)F)c2)cc1-c1ccnc(-c2ccnc(NC(=O)CN(C)C)c2)c1 [Example 7] |
| 100 to 500 | CNc1cc(-c2cccc(-c3cc(NC(=O)c4ccnc(C(C)(C)C#N)c4)ccc3C)c2)ncn1 [Example 160] |
| ≤ 100 | CC(=O)Nc1cc(-c2cncc(-c3cc(NC(=O)c4cc(C(F)(F)F)ccn4)ccc3C)n2)ccn1 [Example 124] |
| ≤ 100 | Cc1ccc(NC(=O)c2ccnc(C(C)(C)C#N)c2)cc1-c1cncc(-c2ccnc(NC(=O)C3CC3)c2)n1 [Example 112] |
| ≤ 100 | Cc1cc(F)c(NC(=O)c2ccnc(C(C)(C)C#N)c2)cc1-c1ccnc(-c2ccnc(NC=O)c2)c1 [Example 104] |
| ≤ 100 | CNC(=O)c1cc(-c2cc(-c3cc(NC(=O)c4cccc(C(C)(C)C#N)c4)ccc3C)ccn2)ccn1 [Example 127] |

system: WM3629 cells; assay: WM3629 Cell Proliferation Assay (1); type: cell-based; conditions: not given
Experimental: WM3629 Cell Proliferation Assay (1)
WM3629 cells (#WM3629-01-0001) are obtained from Rockland Immunochemicals Inc (Gilbertsville, PA). Briefly, cells were grown in MCDB 153 medium (Sigma, #M7403, St. Louis, MO) supplemented with 20% Leibovitz's L-15 (ThermoFisher #11415-064, Waltham, MA), 2% heat inactivated fetal bovine serum (ThermoFisher, #A3840001, Waltham, MA), 5 μg/mL Insulin (Bovine Pancreas) (Sigma, #10516, St. Louis, MO), 1.68 mM Calcium Chloride (Sigma, #C-34006, St. Louis, MO) and 1% Penicillin/Streptomycin/L-Glutamine (ThermoFisher #10378016, Waltham, MA) at 37° C., 5% CO2, and 95% humidity. Cells are expanded until reaching 70-95% confluency at which point they are subcultured or harvested for assay use. A serial dilution of test compound is dispensed into a 96-well black clear bottom plate in triplicate. Four thousand five hundred cells are added per well in 200 μL complete growth medium in the 96-well plate. Plates are incubated for 67-72 hours at 37° C., 5% CO2, and 95% humidity. At the end of the incubation, 40 μL of a 440 μM solution of resazurin (Sigma, #199303, St. Louis, MO) in PBS is added to each well of the plate and plates are incubated for an additional 6-7 hours at 37° C., 5% CO2, and 95% humidity. Plates are read on a Synergy2 or equivalent reader (Biotek, Winooski VT) using an excitation of 540 nm and an emission of 600 nm. Data is analyzed using Prism software (GraphPad, San Diego, CA) to calculate IC50 values.

| Compound | IC50 [nM] |
| --- | --- |
| Cc1ncc(NC(=O)c2ccnc(C(C)(C)C#N)c2)cc1-c1cccc(-c2cc(NC(=O)C3CC3)ncn2)c1 [Example 181] | ≤ 100 |
| CNC(=O)c1cc(-c2cc(-c3cc(NC(=O)c4ccnc(C5(C#N)CC5)c4)ccc3C)ncn2)ccn1 [Example 178] | ≤ 100 |
| Cc1ccc(NC(=O)c2ccnc(C3(C#N)CC3)c2)cc1-c1ccnc(-c2ccnc(NC(=O)C3CC3)c2)n1 [Example 180] | ≤ 100 |
